From patent US10548317B2, “Pesticidally active pyrazole derivatives” (SYNGENTA PARTICIPATIONS AG, priority 2015, dated 2020)

Experiments:
Format in all cases: in vivo
[1] = system: Plutella xylostella; assay: Plutella xylostella (diamond back moth) artificial diet test; conditions: 120 h, application rate of 200 ppm, L2 larvae, 5 days after infestation, read-out: effect in at least one of the two categories (mortality or growth inhibition)
Protocol: Plutella xylostella (Diamond Back Moth):
24-well microtiter plates with artificial diet were treated with aqueous test solutions prepared from 10'000 ppm DMSO stock solutions by pipetting. After drying, the plates were infested with L2 larvae (10 to 15 per well). The samples were assessed for mortality and growth inhibition in comparison to untreated samples 5 days after infestation. The following compounds gave an effect of at least 80% in at least one of the two categories (mortality or growth inhibition) at an application rate of 200 ppm: 1, 2, 3, 4, 5, 6, 7, 8, 9, 10, 11, 12, 13, 14, 15, 16, 17, 18, 19, 20, 21, 22, 23, 24, 25, 26, 27, 28, 29, 30, 31, 32, 33, 35, 36, 37, 38, 39, 40, 41, 42, 43, 44, 45, 46, 47, 48, 50, 51, 52, 53, 54 and 55.

[2] = system: Spodoptera littoralis; assay: Spodoptera littoralis (Egyptian cotton leaf worm) leaf disc spray test; conditions: foliar, 72 h, application rate of 200 ppm, cotton leaf discs, L1 larvae, 3 days after infestation, read-out: control (at least one of mortality, anti-feedant effect, growth inhibition)
Protocol: Spodoptera littoralis (Egyptian Cotton Leaf Worm)
Cotton leaf discs were placed on agar in 24-well microtiter plates and sprayed with aqueous test solutions prepared from 10'000 ppm DMSO stock solutions. After drying the leaf discs were infested with five L1 larvae. The samples were assessed for mortality, anti-feedant effect, and growth inhibition in comparison to untreated samples 3 days after infestation. Control of Spodoptera littoralis by a test sample is when at least one of mortality, anti-feedant effect, and growth inhibition is higher than the untreated sample.

[3] = system: Tetranychus urticae; assay: Tetranychus urticae (two-spotted spider mite) bean leaf disc test; conditions: foliar, 192 h, application rate of 200 ppm, bean leaf discs, mixed population (mobile stages), 8 days after infestation
Protocol: Tetranychus urticae (Two-Spotted Spider Mite):
Bean leaf discs on agar in 24-well microtiter plates were sprayed with aqueous test solutions prepared from 10'000 ppm DMSO stock solutions. After drying the leaf discs were infested with a mite population of mixed ages. The samples were assessed for mortality on mixed population (mobile stages) 8 days after infestation.

[4] = system: Euschistus heros; assay: Euschistus heros (neotropical brown stink bug) soybean leaf test; conditions: 120 h, application rate of 200 ppm, soybean leaves, N2 nymphs, 5 days after infestation, read-out: effect in at least one of the two categories (mortality or growth inhibition)
Protocol: Euschistus heros (Neotropical Brown Stink Bug)
Soybean leaves on agar in 24-well microtiter plates were sprayed with aqueous test solutions prepared from 10'000 ppm DMSO stock solutions. After drying the leaves were infested with N2 nymphs. The samples were assessed for mortality and growth inhibition in comparison to untreated samples 5 days after infestation. The following compounds gave an effect of at least 80% in at least one of the two categories (mortality or growth inhibition) at an application rate of 200 ppm: 3, 4, 5, 6, 9, 10, 12, 14, 15, 16, 17, 18, 20, 24, 27, 28, 29, 31, 32, 33, 36, 37, 38, 42, 43, 45, 50, 52, 53, 54 and 55.

[5] = system: Diabrotica balteata; assay: Diabrotica balteata (corn root worm) maize sprout test; conditions: 96 h, application rate of 200 ppm, maize sprouts, L2 larvae, 4 days after infestation, read-out: effect in at least one of the two categories (mortality or growth inhibition)
Protocol: Diabrotica balteata, (Corn Root Worm)
Maize sprouts, placed on an agar layer in 24-well microtiter plates were treated with aqueous test solutions prepared from 10'000 ppm DMSO stock solutions by spraying. After drying, the plates were infested with L2 larvae (6 to 10 per well). The samples were assessed for mortality and growth inhibition in comparison to untreated samples 4 days after infestation. The following compounds gave an effect of at least 80% in at least one of the two categories (mortality or growth inhibition) at an application rate of 200 ppm: 1, 3, 4, 5, 6, 7, 8, 9, 10, 11, 12, 14, 15, 16, 17, 18, 19, 20, 21, 22, 23, 24, 25, 26, 27, 28, 29, 30, 31, 32, 33, 35, 36, 37, 38, 39, 40, 41, 42, 43, 44, 45, 48, 50, 51, 52, 53, 54 and 55.

[6] = system: Thrips tabaci; assay: Thrips tabaci (onion thrips) sunflower leaf disc test; conditions: foliar, 144 h, application rate of 200 ppm, sunflower leaf discs, mixed ages, 6 days after infestation
Protocol: Thrips tabaci (Onion thrips):
Sunflower leaf discs were placed on agar in 24-well microtiter plates and sprayed with aqueous test solutions prepared from 10'000 ppm DMSO stock solutions. After drying the leaf discs were infested with a thrips population of mixed ages. The samples were assessed for mortality 6 days after infestation.

C=C(C)CNC(=O)c1cc(-c2cnn(-c3c(C(F)(F)F)c(C(F)(F)C(F)(F)F)nn3C)c2)sc1Cl [Compound 13]
≥ 80%: percent effect (mortality or growth inhibition) at 200 ppm [1] | control (mortality, anti-feedant effect or growth inhibition) at 200 ppm [2] | mortality at 200 ppm [3]

Cn1nc(C(F)(F)C(F)(F)F)c(C(F)(F)F)c1-n1cc(-c2cc(Cl)c(C(=O)NC3(C#N)CC3)s2)cn1 [Compound 2, 3-chloro-N-(1-cyanocyclopropyl)-5-[1-[2-methyl-5-(1,1,2,2,2-pentafluoroethyl)-4-(trifluoromethyl)pyrazol-3-yl]pyrazol-4-yl]thiophene-2-carboxamide]
≥ 80%: percent effect (mortality or growth inhibition) at 200 ppm [1] | control (mortality, anti-feedant effect or growth inhibition) at 200 ppm [2]

Cn1nc(OC(F)(F)C(F)OC(F)(F)F)c(C(F)(F)F)c1-n1cc(-c2cc(C(=O)NC3CC3)c(Cl)s2)cn1 (stereo not shown) [Compound 55]
≥ 80%: percent effect (mortality or growth inhibition) at 200 ppm [1] | percent effect (mortality or growth inhibition) at 200 ppm [4] | control (mortality, anti-feedant effect or growth inhibition) at 200 ppm [2] | percent effect (mortality or growth inhibition) at 200 ppm [5]

Cn1nc(C(F)(F)C(F)(F)F)c(C(F)(F)F)c1-n1cc(-c2csc(C(=O)NC3CC3)n2)cn1 [Compound 40]
≥ 80%: percent effect (mortality or growth inhibition) at 200 ppm [1] | control (mortality, anti-feedant effect or growth inhibition) at 200 ppm [2] | percent effect (mortality or growth inhibition) at 200 ppm [5]

Cn1nc(C(F)(F)C(F)(F)F)c(C(F)(F)F)c1-n1cc(-c2csc(C(=O)NC3(C#N)CC3)n2)cn1 [Compound 41]
≥ 80%: percent effect (mortality or growth inhibition) at 200 ppm [1] | control (mortality, anti-feedant effect or growth inhibition) at 200 ppm [2] | percent effect (mortality or growth inhibition) at 200 ppm [5]

Cn1nc(C(F)(F)C(F)(F)F)c(C(F)(F)F)c1-n1cc(-n2cc(C(=O)NC3(C#N)CC3)c(C(F)(F)F)c2)cn1 [Compound 44]
≥ 80%: percent effect (mortality or growth inhibition) at 200 ppm [1] | mortality at 200 ppm [6] | control (mortality, anti-feedant effect or growth inhibition) at 200 ppm [2] | percent effect (mortality or growth inhibition) at 200 ppm [5]

Cn1nc(C(F)(F)C(F)(F)F)c(C(F)(F)F)c1-n1cc(-c2cc(Cl)c(C(=O)NC3CC3)s2)cn1 [Compound 1, 3-chloro-N-cyclopropyl-5-[1-[2-methyl-5-(1,1,2,2,2-pentafluoroethyl)-4-(trifluoromethyl)pyrazol-3-yl]pyrazol-4-yl]thiophene-2-carboxamide]
≥ 80%: percent effect (mortality or growth inhibition) at 200 ppm [1] | mortality at 200 ppm [6] | control (mortality, anti-feedant effect or growth inhibition) at 200 ppm [2] | percent effect (mortality or growth inhibition) at 200 ppm [5] | mortality at 200 ppm [3]

Cn1nc(C(F)(F)C(F)(F)F)c(C(F)(F)F)c1-n1cc(-c2cc(C(=O)NCc3ccccc3)c(Cl)s2)cn1 [Compound 19]
≥ 80%: percent effect (mortality or growth inhibition) at 200 ppm [1] | control (mortality, anti-feedant effect or growth inhibition) at 200 ppm [2] | percent effect (mortality or growth inhibition) at 200 ppm [5] | mortality at 200 ppm [3]

Cn1nc(C(F)(F)C(F)(F)F)c(C(F)(F)F)c1-n1cc(-c2cc(C(=O)Nc3ccc(Cl)cc3)c(Cl)s2)cn1 [Compound 25]
≥ 80%: percent effect (mortality or growth inhibition) at 200 ppm [1] | percent effect (mortality or growth inhibition) at 200 ppm [5]

Cn1nc(C(F)(F)C(F)(F)F)c(C(F)(F)F)c1-n1cc(-n2cc(C(=O)NC3(C#N)CC3)c(C(F)(F)F)n2)cn1 [Compound 11]
≥ 80%: percent effect (mortality or growth inhibition) at 200 ppm [1] | mortality at 200 ppm [6] | control (mortality, anti-feedant effect or growth inhibition) at 200 ppm [2] | percent effect (mortality or growth inhibition) at 200 ppm [5] | mortality at 200 ppm [3]

Cn1nc(C(F)(F)C(F)(F)F)c(C(F)(F)F)c1-n1cc(-c2nc(C(=O)NC3(C#N)CC3)c(Cl)s2)cn1 [Compound 7, 5-chloro-N-(1-cyanocyclopropyl)-2-[1-[2-methyl-5-(1,1,2,2,2-pentafluoroethyl)-4-(trifluoromethyl)pyrazol-3-yl]pyrazol-4-yl]thiazole-4-carboxamide]
≥ 80%: percent effect (mortality or growth inhibition) at 200 ppm [1] | control (mortality, anti-feedant effect or growth inhibition) at 200 ppm [2] | percent effect (mortality or growth inhibition) at 200 ppm [5] | mortality at 200 ppm [3]

Cn1nc(C(F)(F)C(F)(F)F)c(OC(F)F)c1-n1cc(-c2cc(C(=O)NC3(C#N)CC3)cs2)cn1 [Compound 39]
≥ 80%: percent effect (mortality or growth inhibition) at 200 ppm [1] | control (mortality, anti-feedant effect or growth inhibition) at 200 ppm [2] | percent effect (mortality or growth inhibition) at 200 ppm [5] | mortality at 200 ppm [3]

Cn1nc(C(F)(F)C(F)(F)F)c(C(F)(F)F)c1-n1cc(-c2cc(C(=O)NC3(C(F)(F)F)CC3)c(Cl)s2)cn1 [Compound 22]
≥ 80%: percent effect (mortality or growth inhibition) at 200 ppm [1] | mortality at 200 ppm [6] | control (mortality, anti-feedant effect or growth inhibition) at 200 ppm [2] | percent effect (mortality or growth inhibition) at 200 ppm [5] | mortality at 200 ppm [3]

Cn1nc(C(F)(F)C(F)(F)F)c(C(F)(F)F)c1-n1cc(-c2nc(C(=O)NC3CC3)c(Cl)s2)cn1 [Compound 8, 5-chloro-N-cyclopropyl-2-[1-[2-methyl-5-(1,1,2,2,2-pentafluoroethyl)-4-(trifluoromethyl)pyrazol-3-yl]pyrazol-4-yl]thiazole-4-carboxamide]
≥ 80%: percent effect (mortality or growth inhibition) at 200 ppm [1] | control (mortality, anti-feedant effect or growth inhibition) at 200 ppm [2] | percent effect (mortality or growth inhibition) at 200 ppm [5]

Cn1nc(C(F)(F)C(F)(F)F)c(C(F)(F)F)c1-n1cc(-c2cc(C(=O)NCCC(F)(F)F)c(Cl)s2)cn1 [Compound 30]
≥ 80%: percent effect (mortality or growth inhibition) at 200 ppm [1] | mortality at 200 ppm [6] | control (mortality, anti-feedant effect or growth inhibition) at 200 ppm [2] | percent effect (mortality or growth inhibition) at 200 ppm [5] | mortality at 200 ppm [3]

Cc1nn(-c2cnn(-c3c(C(F)(F)F)c(C(F)(F)C(F)(F)F)nn3C)c2)cc1C(=O)NC1CC1 [Compound 46]
≥ 80%: percent effect (mortality or growth inhibition) at 200 ppm [1] | control (mortality, anti-feedant effect or growth inhibition) at 200 ppm [2]

Cn1nc(C(F)(F)C(F)(F)F)c(C(F)(F)F)c1-n1cc(-c2csc(C(=O)NC3(C#N)CC3)c2)cn1 [Compound 51]
≥ 80%: percent effect (mortality or growth inhibition) at 200 ppm [1] | control (mortality, anti-feedant effect or growth inhibition) at 200 ppm [2] | percent effect (mortality or growth inhibition) at 200 ppm [5]

CC(C)CNC(=O)c1cc(-c2cnn(-c3c(C(F)(F)F)c(C(F)(F)C(F)(F)F)nn3C)c2)sc1Cl [Compound 23]
≥ 80%: percent effect (mortality or growth inhibition) at 200 ppm [1] | control (mortality, anti-feedant effect or growth inhibition) at 200 ppm [2] | percent effect (mortality or growth inhibition) at 200 ppm [5] | mortality at 200 ppm [3]

Cn1nc(C(F)(F)C(F)(F)F)c(C(F)(F)F)c1-n1cc(-c2cc(C(=O)NCc3ccccn3)c(Cl)s2)cn1 [Compound 26]
≥ 80%: percent effect (mortality or growth inhibition) at 200 ppm [1] | control (mortality, anti-feedant effect or growth inhibition) at 200 ppm [2] | percent effect (mortality or growth inhibition) at 200 ppm [5] | mortality at 200 ppm [3]

Cn1nc(C(F)(F)C(F)(F)F)c(C(F)(F)F)c1-n1cc(-c2cc(C(=O)Nc3ccncc3)c(Cl)s2)cn1 [Compound 21]
≥ 80%: percent effect (mortality or growth inhibition) at 200 ppm [1] | mortality at 200 ppm [6] | control (mortality, anti-feedant effect or growth inhibition) at 200 ppm [2] | percent effect (mortality or growth inhibition) at 200 ppm [5]
